The source made the active and inactive calls.
Experiments:
[1] = molecular target: T1, SUMO-activating enzyme (Homo sapiens, UniProt Q9UBT2); test: blockers of SAE1/SAE2–UBC9 SUMO transfer – biochemical, HTRF, uHTS, primary screen (AID 2006); type: protein-complex assay
[2] = molecular target: T1, SUMO-activating enzyme; test: blockers of UBC9-mediated SUMO conjugation – biochemical, AlphaScreen, SUMOylation inhibitor project, confirmation (AID 2018); type: functional
[3] = molecular target: T2, ORF 73 (Human herpesvirus 8, UniProt O40947); test: KSHV LANA DNA-binding disruption – biochemical, fluorescence polarization, cherry-picked samples, dose response (AID 504725); design: species or system Human gammaherpesvirus 8;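 also: fluorescence polarization of a labeled DNA duplex reporting LANA DNA binding; potency is for inhibitors that block LANA binding to the DNA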
T2 sequence (O40947 whole entry): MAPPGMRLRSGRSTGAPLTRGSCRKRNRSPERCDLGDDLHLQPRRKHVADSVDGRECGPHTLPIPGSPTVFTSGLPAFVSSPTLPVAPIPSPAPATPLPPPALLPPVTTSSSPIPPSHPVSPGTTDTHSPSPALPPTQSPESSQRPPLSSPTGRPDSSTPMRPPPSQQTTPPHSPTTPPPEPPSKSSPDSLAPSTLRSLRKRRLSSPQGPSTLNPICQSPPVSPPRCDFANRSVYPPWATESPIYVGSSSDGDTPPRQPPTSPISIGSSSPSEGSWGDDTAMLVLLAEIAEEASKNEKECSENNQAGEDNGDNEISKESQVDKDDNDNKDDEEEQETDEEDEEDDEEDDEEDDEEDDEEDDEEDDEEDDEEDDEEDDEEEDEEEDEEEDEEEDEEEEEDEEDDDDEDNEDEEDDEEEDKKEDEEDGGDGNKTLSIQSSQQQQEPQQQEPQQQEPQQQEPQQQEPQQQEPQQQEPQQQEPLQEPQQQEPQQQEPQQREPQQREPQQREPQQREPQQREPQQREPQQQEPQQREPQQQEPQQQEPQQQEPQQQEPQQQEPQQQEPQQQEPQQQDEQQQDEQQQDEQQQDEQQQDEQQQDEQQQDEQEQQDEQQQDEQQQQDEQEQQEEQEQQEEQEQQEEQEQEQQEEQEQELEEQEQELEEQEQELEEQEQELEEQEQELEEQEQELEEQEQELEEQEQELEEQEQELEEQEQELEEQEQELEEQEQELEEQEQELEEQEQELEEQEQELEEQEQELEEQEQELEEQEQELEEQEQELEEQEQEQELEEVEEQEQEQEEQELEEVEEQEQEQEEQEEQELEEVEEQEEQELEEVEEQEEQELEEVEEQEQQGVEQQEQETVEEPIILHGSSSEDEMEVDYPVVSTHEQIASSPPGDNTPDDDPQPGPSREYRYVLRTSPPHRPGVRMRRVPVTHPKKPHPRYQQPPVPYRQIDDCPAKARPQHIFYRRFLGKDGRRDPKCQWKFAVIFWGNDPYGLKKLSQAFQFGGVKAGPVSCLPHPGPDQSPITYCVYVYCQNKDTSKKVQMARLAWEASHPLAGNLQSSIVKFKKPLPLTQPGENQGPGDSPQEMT

[4] = molecular target: Eukaryotic translation initiation factor 4H (Homo sapiens, UniProt Q15056); test: eIF4H binding inhibition – biochemical, uHTS, fluorescence polarization, translation initiation inhibitor project, primary screen (AID 2012)
[5] = molecular target: Polyadenylate-binding protein 1 (Homo sapiens, UniProt P11940); test: blockers of PABP interaction with poly(A) – biochemical, fluorescence polarization, […] (AID 2014)
[6] = A cytotoxicity screen of small molecule inhibitors of the PhoP region in Salmonella typhi identified in the primary screen. [Related pubchem assays: 1850, 1864, 1985 ]; type: functional
[7] = molecular target: Procathepsin L (Homo sapiens, UniProt P07711); test: CTSL1 protease inhibition – biochemical, QFRET, 1536-well, counter-screen for M1/M17 aminopeptidase inhibitor project, dose response (AID 2214)
[8] = molecular target: T3, Aspartyl aminopeptidase (Plasmodium falciparum 3D7, UniProt Q8I2J3); test: Counterscreen for inhibitors of M1 and M17 aminopeptidases: QFRET-based biochemical high throughput dose response assay for inhibitors of the Plasmodium falciparum M18 Aspartyl Aminopeptidase (PFM18AAP). [Related PubChem assays: 1619 (Screening assay (M17LAP inhibitors).), 1445 (Screening assay (M1AAP inhibitors).)]
T3 sequence (Q8I2J3 whole entry): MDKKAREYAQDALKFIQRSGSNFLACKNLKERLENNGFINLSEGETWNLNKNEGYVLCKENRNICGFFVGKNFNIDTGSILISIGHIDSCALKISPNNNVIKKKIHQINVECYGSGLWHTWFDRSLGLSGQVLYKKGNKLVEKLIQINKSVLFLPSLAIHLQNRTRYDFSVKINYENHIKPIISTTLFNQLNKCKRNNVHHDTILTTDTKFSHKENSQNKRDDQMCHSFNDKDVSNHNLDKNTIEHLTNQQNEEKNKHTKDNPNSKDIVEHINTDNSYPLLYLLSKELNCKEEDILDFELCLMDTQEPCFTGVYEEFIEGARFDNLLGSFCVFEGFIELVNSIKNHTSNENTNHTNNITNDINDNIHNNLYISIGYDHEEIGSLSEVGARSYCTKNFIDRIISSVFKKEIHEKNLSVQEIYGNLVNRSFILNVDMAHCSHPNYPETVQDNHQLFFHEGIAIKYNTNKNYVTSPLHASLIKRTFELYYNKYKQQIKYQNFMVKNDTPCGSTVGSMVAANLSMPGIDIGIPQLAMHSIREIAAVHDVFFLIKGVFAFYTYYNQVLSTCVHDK

[9] = molecular target: T4, Leucine aminopeptidase (Plasmodium falciparum 3D7, UniProt Q8IL11); test: P. falciparum M17LAP inhibitors, primary screen, biochemical, fluorogenic H-Leu-NHMec substrate, 1536-well (AID 1619); type: functional
T4 sequence (Q8IL11 whole entry): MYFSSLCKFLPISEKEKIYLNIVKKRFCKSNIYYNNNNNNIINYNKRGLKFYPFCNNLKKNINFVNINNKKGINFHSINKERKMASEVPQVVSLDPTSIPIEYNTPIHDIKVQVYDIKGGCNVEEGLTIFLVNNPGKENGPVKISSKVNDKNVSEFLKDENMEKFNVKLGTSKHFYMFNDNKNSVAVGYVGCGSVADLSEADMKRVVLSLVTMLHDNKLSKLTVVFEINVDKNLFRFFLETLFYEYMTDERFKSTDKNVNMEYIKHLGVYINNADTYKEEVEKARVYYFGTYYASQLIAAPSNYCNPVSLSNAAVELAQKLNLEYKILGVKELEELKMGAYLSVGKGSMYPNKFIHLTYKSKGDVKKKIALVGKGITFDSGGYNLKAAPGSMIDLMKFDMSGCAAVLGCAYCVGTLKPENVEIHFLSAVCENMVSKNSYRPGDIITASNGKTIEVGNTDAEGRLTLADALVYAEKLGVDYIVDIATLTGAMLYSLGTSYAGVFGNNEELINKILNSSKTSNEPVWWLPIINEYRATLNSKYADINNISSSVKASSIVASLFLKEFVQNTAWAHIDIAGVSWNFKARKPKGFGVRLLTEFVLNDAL

[10] = test system: HEK293; test: EBV LMP1 TES2 canonical NF-kB signalling blockers – cell-based, HEK293, luciferase, cherry-pick, dose response (AID 588343); type: functional; conditions: Homo sapiens
[11] = test system: HT-1080; test: HT1080 cell viability loss – fluorescence readout (AID 620); type: functional, cell-based; conditions: Homo sapiens
[12] = molecular target: Luciferin 4-monooxygenase (Photinus pyralis, UniProt P08659); test: Counter Screen for Luciferase-based Assay Positives. [Related pubchem assays: 620, 618, 411 ]
[13] = molecular target: T5, Acyl-homoserine lactone acylase PvdQ (Pseudomonas aeruginosa (strain LESB58), UniProt Q9I194); test: PvdQ acylase enzyme activity blockers – biochemical, fluorescence, plate reader and imaging, cherry-picks, dose response (AID 493231)
T5 sequence (Q9I194 whole entry): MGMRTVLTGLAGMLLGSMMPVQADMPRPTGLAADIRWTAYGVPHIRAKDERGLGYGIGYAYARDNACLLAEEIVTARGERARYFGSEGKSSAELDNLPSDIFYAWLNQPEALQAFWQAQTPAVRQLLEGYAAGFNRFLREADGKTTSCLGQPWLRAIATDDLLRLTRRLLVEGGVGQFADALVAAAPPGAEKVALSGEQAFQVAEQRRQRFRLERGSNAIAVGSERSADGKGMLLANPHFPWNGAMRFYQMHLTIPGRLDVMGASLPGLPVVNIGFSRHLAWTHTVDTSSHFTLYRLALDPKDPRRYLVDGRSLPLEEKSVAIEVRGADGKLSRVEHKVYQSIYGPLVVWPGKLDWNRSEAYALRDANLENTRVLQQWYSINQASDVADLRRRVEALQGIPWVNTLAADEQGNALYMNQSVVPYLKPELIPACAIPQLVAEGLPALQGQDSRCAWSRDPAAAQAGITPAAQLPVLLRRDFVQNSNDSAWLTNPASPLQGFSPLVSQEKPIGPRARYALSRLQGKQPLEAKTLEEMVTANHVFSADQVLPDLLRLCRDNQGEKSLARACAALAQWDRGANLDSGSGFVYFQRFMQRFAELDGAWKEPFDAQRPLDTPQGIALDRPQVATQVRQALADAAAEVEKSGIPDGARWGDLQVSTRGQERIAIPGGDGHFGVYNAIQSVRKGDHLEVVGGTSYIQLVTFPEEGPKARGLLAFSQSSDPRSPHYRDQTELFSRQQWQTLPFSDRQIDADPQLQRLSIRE

[14] = Trypanosoma cruzi growth suppression in host cells – NIH3T3 host cells, beta-gal luminescence, confirmation (AID 2044); type: functional, cell-based;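 also: intracellular parasites grown in NIH/3T3 mouse fibroblasts as host cells; luminescent beta-galactosidase reporter signal from transgenic T. cruzi replicating inside host cells; inhibitors lower the luminescence signal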
[15] = NIH3T3 cell viability loss – ATP luminescence, mouse fibroblasts, counter-screen, dose response (AID 2010); type: functional, cell-based;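 also: cells exposed to compound for about 90 hours before reading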
[16] = molecular target: T6, Ubiquitin-conjugating enzyme E2 N (Homo sapiens, UniProt P61088); type: functional;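 also: Dose-response confirmation in a TR-FRET assay detecting UBC13-driven polyubiquitin chain formation, inhibition measured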
T6 sequence (P61088 whole entry): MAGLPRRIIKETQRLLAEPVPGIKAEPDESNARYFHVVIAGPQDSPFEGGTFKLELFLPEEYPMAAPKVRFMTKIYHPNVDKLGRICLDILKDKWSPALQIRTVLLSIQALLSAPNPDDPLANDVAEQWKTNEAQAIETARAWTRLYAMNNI

T1 sequence (Q9UBE0 whole entry): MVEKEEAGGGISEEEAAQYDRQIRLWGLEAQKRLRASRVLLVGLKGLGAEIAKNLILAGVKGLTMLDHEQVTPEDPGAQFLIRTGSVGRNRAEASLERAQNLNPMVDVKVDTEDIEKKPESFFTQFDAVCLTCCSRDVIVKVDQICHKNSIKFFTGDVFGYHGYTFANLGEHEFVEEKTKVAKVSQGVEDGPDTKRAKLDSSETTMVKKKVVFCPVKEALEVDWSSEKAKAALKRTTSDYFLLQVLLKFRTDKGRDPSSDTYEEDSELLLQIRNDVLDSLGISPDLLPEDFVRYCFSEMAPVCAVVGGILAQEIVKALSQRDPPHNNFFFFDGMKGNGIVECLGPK
T1 sequence (Q9UBT2 whole entry): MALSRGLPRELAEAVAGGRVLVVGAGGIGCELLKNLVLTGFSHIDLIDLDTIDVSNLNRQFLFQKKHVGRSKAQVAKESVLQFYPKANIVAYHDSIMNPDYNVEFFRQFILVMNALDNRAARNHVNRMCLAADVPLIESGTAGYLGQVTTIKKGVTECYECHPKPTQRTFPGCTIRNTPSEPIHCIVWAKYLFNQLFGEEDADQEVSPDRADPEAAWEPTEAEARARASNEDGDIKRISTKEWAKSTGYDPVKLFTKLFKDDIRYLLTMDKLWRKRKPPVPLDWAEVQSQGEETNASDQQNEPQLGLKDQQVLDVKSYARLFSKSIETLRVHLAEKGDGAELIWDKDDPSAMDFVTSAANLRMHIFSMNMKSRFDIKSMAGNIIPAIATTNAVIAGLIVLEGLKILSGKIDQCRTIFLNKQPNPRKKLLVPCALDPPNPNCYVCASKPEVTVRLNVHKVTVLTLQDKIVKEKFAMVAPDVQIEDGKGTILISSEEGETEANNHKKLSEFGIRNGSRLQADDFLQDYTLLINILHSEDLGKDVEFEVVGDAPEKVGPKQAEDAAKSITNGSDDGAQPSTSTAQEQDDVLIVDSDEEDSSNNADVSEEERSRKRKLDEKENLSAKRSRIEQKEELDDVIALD
Chain of Luciferin 4-monooxygenase (P08659 whole entry): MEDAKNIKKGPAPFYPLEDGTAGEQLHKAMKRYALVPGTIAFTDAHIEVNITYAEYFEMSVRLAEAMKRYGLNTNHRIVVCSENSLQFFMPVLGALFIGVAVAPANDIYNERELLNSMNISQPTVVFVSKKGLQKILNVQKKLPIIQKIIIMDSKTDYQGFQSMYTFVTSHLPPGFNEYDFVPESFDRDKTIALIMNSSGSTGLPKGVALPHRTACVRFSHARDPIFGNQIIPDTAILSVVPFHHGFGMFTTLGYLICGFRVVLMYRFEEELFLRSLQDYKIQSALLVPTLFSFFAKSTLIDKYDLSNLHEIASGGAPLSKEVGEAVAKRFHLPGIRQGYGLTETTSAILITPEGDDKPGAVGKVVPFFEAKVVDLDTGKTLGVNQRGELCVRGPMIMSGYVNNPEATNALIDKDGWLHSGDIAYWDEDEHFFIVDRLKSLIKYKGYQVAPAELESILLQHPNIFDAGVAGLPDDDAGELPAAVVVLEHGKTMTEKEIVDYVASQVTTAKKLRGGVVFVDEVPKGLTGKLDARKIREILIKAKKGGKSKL
Chain of Procathepsin L (P07711 whole entry): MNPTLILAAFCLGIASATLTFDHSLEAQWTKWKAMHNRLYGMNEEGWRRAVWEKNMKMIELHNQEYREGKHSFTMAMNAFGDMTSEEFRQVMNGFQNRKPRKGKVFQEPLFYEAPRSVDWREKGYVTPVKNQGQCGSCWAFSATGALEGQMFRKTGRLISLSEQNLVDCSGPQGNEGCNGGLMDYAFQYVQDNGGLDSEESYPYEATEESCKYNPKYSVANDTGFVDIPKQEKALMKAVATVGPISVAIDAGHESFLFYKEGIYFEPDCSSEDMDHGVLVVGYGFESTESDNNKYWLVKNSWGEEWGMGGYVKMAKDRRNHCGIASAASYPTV
Chain of Polyadenylate-binding protein 1 (P11940 whole entry): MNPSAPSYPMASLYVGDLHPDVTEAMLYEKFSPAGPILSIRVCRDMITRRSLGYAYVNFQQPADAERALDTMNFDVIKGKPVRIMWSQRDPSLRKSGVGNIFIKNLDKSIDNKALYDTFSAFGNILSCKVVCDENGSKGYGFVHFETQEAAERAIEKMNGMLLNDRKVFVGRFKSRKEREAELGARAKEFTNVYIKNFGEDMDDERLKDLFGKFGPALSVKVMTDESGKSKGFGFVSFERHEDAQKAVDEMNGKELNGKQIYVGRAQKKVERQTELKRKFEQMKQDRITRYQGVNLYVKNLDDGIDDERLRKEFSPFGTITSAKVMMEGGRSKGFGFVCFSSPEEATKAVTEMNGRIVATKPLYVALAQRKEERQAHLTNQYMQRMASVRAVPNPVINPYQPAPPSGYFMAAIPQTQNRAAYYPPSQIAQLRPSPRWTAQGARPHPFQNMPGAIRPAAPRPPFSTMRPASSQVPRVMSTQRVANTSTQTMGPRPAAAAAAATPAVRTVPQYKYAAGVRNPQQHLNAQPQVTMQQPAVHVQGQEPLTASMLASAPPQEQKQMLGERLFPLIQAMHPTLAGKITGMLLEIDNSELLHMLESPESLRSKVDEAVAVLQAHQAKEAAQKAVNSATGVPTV

SMILES: COc1cc2c(cc1OC)-c1cc3ccc4c(c3c[n+]1CC2)OCO4
- IC50 [1]: 8.68 µM (active)
- IC50 [2]: 4.17 µM (active)
- AC50 [3]: 20.5 µM (active)

SMILES: O=C(NC(Cc1ccccc1)C(=O)Oc1ccc2c(C(F)(F)F)cc(=O)oc2c1)OCc1ccccc1 (stereo unspecified)
- IC50 [4]: > 100 µM (inactive)
- IC50 [5]: > 100 µM (inactive)

SMILES: CNc1nc(SC)n(C)c(=O)c1N=O
- EC50 [6]: > 50 µM (active)

SMILES: COC(=O)c1c(-c2ccc(C)cc2)csc1NC(=O)C1CC=CCC1C(=O)O (stereo unspecified)
- IC50 [7]: > 59.6 µM (not active)
- IC50 [8]: > 73.5 µM (not active)
- IC50 [9]: 1.2 µM (active)

SMILES: c1ccc(OCCSc2nnc3sc4ccccc4n23)cc1
- AC50 [10]: 1.29 µM (active)
- EC50 [11]: 14.8 µM (active)
- EC50 [12]: > 100 µM (not active)

SMILES: O=C(NCC1CC1)c1cc([N+](=O)[O-])cc([N+](=O)[O-])c1
- AC50 [13]: 3.55 µM (active)
- EC50 [14]: 0.622 µM (active)
- EC50 [15]: > 60 µM (not active)

SMILES: O=S(=O)(c1ccc(NC(=S)NN=C(C2CC2)C2CC2)cc1)N1CCOCC1
- IC50 [16]: > 20 µM (inactive)

— ChEMBL document CHEMBL1201862, “PubChem BioAssay data set” (2004)
